This is an account of results in US5244908A, “Imidazopyridine derivatives and their pharmaceutical use” (Takeda Chemical Industries, Ltd., priority 1990, dated 1993).

The inhibition is how much of the control response was suppressed. Read a low inhibition as a weak effect.

Counter-ions that a name gives are not always drawn.

One experiment addresses calmodulin (Bos taurus, UniProt P62157). The experiment can be described thus: Calmodulin inhibitory activity (calmodulin-activated cyclic nucleotide phosphodiesterase, [3H]cGMP). The format is biochemical. Particulars: 10^-5 M.
Molecule `O=S(=O)(NCCOc1cccc2nccn12)c1cccc2ccccc12` [Compound 78, 5-[2-(1-(Naphthyl)sulfonylamino)ethyloxy]imidazo[1,2-a]pyridine] displayed an inhibition at 10 µM of 56%.
In turn, `CC(C)S(=O)(=O)NCCSc1cccc2nccn12` [Compound 5, 5-[2-(Isopropylsulfonylamino)ethylthio]imidazo[1,2-a]pyridine] yielded an inhibition at 10 µM of 50%.
`CC(C)OC(=O)NCCCCSc1cccc2nccn12` [Compound 169, 5-[4-(isopropyloxycarbonylamino)butylthio]imidazo[1,2-a]pyridine] yielded an inhibition at 10 µM of 58%.
With `O=S(=O)(NCCSc1cccc2nccn12)c1cc(Cl)c(Cl)cc1Cl` [Compound 37, 5-[2-[2,4,5-(Trichloro)phenylsulfonylamino]ethylthio]imidazo[1,2-a]pyridine], the inhibition at 10 µM was found to be 58%.
Same read-out and setting: then `O=S(=O)(NCCSc1cccc2nccn12)c1ccc2ccccc2c1` [Compound 44, 5-[2-[(2-Naphthyl)sulfonylamino]ethylthio]imidazo[1,2-a]pyridine], with 65%; and `CN(C)c1cccc2c(S(=O)(=O)NCCSc3cccc4nccn34)cccc12` [Compound 48, 5-[2-[5-(Dimethylamino)-(1-naphthylsulfonylamino)]ethylthio]imidazo[1,2-a]pyridine], with 50%.
Take `COC(=O)NCCCSc1cccc2nccn12` [Compound 145, 5-[3-(Methoxycarbonylamino)propylthio]imidazo[1,2-a]pyridine]: the inhibition at 10 µM amounted to 63%.
For `O=S(=O)(NCC(Oc1cccc2nccn12)c1ccccc1)C(F)(F)F` (stereo not drawn) [Compound 75, 5-[[1-(Phenyl)-2-(trifluoromethylsulfonylamino)]ethyloxy]imidazo[1,2-a]pyridine], the inhibition at 10 µM was 55%.
The same measure, in the same setting: then `CC(=O)N(CCCSc1cccc2nccn12)CCNc1ccccc1` [Compound 158, 5-[3-[[2-(Anilino)ethyl]-N-(acetyl)amino]propylthio]imidazo[1,2-a]pyridine], with 81%.
The same measure, in the same setting: then `O=S(=O)(NCCSc1cccc2nccn12)c1ccc(Cl)cc1` [Compound 34, 5-[2-[4-(Chloro)phenylsulfonylamino]ethylthio]imidazo[1,2-a]pyridine], with 53%; and `CNC(=O)OCCSc1cccc2nccn12` [Compound 118, 5-[2-(methylcarbamoyloxy)ethylthio]imidazo[1,2-a]pyridine], with 74%; and `O=S(=O)(/C=C/c1ccccc1)N(CCSc1cccc2nccn12)S(=O)(=O)/C=C/c1ccccc1` [Compound 50, 5-[2-[N,N-di-(E)-Styrylsulfonylamino]ethylthio]imidazo[1,2-a]pyridine], with 65%.
For `COC(=O)NCCSc1cccc2nccn12` [Compound 128, 5-[2-(methoxycarbonylamino)ethylthio]imidazo[1,2-a]pyridine], the inhibition at 10 µM came out at 50%.
For the molecule `CCCNC(=O)NCCSc1cccc2nccn12` [Compound 102, 5-[2-(Propylcarbamoylamino)ethylthio]imidazo[1,2-a]pyridine], the inhibition at 10 µM was determined as 52%.
Consider `O=C(NCc1ccncc1)OCCSc1cccc2nccn12` [Compound 127, 5-[2-[4-(Pyridyl)methylcarbamoyloxy]ethylthio]imidazo[1,2-a]pyridine], for which the inhibition at 10 µM stood at 57%.
As for `Cc1cn2c(SCCNC(=S)Nc3ccccc3)cccc2n1` [Compound 115, 2-Methyl-5-[2-(phenylthiocarbamoylamino)ethylthio]imidazo[1,2-a]pyridine], the inhibition at 10 µM was 53%.
Same read-out and setting: then `O=C(NCCSc1cccc2nccn12)c1ccccc1` [Compound 87, 5-[2-(Benzoylamino)ethylthio]imidazo[1,2-a]pyridine], with 51%; and `CCCOC(=O)NCCSc1cccc2nccn12` [Compound 130, 5-[2-(Propyloxycarbonylamino)ethylthio]imidazo[1,2-a]pyridine], with 50%.
Still for that read-out and setting: then `O=C(NCCSc1cccc2nccn12)OCC(Cl)(Cl)Cl` [Compound 136, 5-[2-[2,2,2-(Trichloro)ethoxycarbonylamino]ethylthio]imidazo[1,2-a]pyridine], with 52%; and `CC(C)NC(=O)NCCSc1cccc2nccn12` [Compound 103, 5-[2-(Isopropylcarbamoylamino)ethylthio]imidazo[1,2-a]pyridine], with 52%.
Same read-out and setting: for `O=S(=O)(NCCCOc1cccc2nccn12)c1cccc2ccccc12` [Compound 79, 5-[3-(1-(Naphthyl)sulfonylamino)propyloxy]imidazo[1,2-a]pyridine] the value was 50%.
Molecule `O=S(=O)(N1CCC(Oc2cccc3nccn23)CC1)C(F)(F)F` [Compound 77, 5-[1-(Trifuloromethylsulfonyl)-4-piperidyloxy]imidazo[1,2-a]pyridine] yielded an inhibition at 10 µM of 80%.
Still for that read-out and setting: for `Cc1cn2c(SCCNS(=O)(=O)c3cccc4ccccc34)cccc2n1` [Compound 56, 2-Methyl-5-[2-(1-naphthylsulfonylamino)ethylthio]imidazo[1,2-a]pyridine] the value was 62%; for `COc1ccc(NC(=S)NCCSc2cccc3nccn23)cc1` [Compound 109, 5-[2-[4-(Methoxy)phenylthiocarbamoylamino]ethylthio]imidazo[1,2-a]pyridine], 50%; for `CS(=O)(=O)NCCCSc1cccc2nccn12` [Compound 27, 5-[3-(Methylsulfonylamino)propylthio]imidazo[1,2-a]pyridine], 51%.
Regarding `O=S(=O)(NCCSc1cccc2nccn12)c1cccc2ccccc12` [Compound 42, 5-[2-[(1-Naphthyl)sulfonylamino]ethylthio]imidazo[1,2-a]pyridine], 10 µM produced 100% inhibition.
On the same count and under the same terms, for `CC(C)OC(=O)NCCSc1cccc2ncc(CN3CCOCC3)n12` [Compound 144, 5-[2-(Isopropyloxycarbonylamino)ethylthio]-3-(morpholinomethyl)imidazo[1,2-a]pyridine] the value was 60%; for `CC(=O)Nc1nc(C)c(S(=O)(=O)NCCSc2cccc3nccn23)s1` [Compound 51, 5-[2-[2-(Acetylamino)-4-(methyl)-(5-thiazolyl)sulfonylamino]ethylthio]imidazo[1,2-a]pyridine], 83%.
Same read-out and setting: for `CCNC(=O)NCCSc1cccc2nccn12` [Compound 101, 5-[2-(Ethylcarbamoylamino)ethylthio]imidazo[1,2-a]pyridine] the value was 56%.
Regarding `CS(=O)(=O)NCCOc1cccc2nccn12` [Compound 62, 5-[2-(Methylsulfonylamino)ethyloxy]imidazo[1,2-a]pyridine], testing at 10 µM gave an inhibition of 79%.
Still for that read-out and setting: for `O=S(=O)(NCCSc1cccc2nccn12)c1ccccc1` [Compound 30, 5-[2-(Phenylsulfonylamino)ethylthio]imidazo[1,2-a]pyridine] the value was 64%.
Same read-out and setting: then `O=C(NCCSc1cccc2nccn12)NC1CCCCC1` [Compound 105, 5-[2-(Cyclohexylcarbamoylamino)ethylthio]imidazo[1,2-a]pyridine], with 67%; and `O=C(NCCSc1cccc2nccn12)c1cccs1` [Compound 89, 5-[2-[(2-Thenoylamino)]ethylthio]imidazo[1,2-a]pyridine], with 54%; and `O=C(NCCSc1cccc2nccn12)C(F)(F)F` [Compound 84, 5-[2-(Trifluoroacetylamino)ethylthio]imidazo[1,2-a]pyridine], with 69%.
Still for that read-out and setting: for `O=S(=O)(NCCCCSc1cccc2nccn12)c1cccc2ccccc12` [Compound 168, 5-[4-(1-naphthalenesulfonylamino)butylthio]imidazo[1,2-a]pyridine] the value was 56%; for `C=CCOC(=O)NCCSc1cccc2nccn12` [Compound 135, 5-[2-(Allyloxycarbonylamino)ethylthio]imidazo[1,2-a]pyridine], 60%; for `O=S(=O)(N1CCC(Sc2cccc3nccn23)CC1)C(F)(F)F` [Compound 165, 5-[1-(trifluoromethanesulfonyl)4-piperidylthio]imidazo[1,2-a]pyridine], 65%.
In turn, `CN(C)Cc1cnc2cccc(SCCNS(C)(=O)=O)n12` [Compound 16, 3-Dimethylaminomethyl-5-[2-(methylsulfonylamino)ethylthio]imidazo[1,2-a]pyridine.dihydrochloride] returned an inhibition at 10 µM of 66%.
The molecule `CS(=O)(=O)NCC(Oc1cccc2nccn12)c1ccccc1` (stereo not drawn) [Compound 74, 5-[2-(Methylsulfonylamino)-1-(phenyl)ethyloxy]imidazo[1,2-a]pyridine] gave an inhibition at 10 µM of 50%.
`CC(=O)NCCSc1cccc2nccn12` [Compound 83, 5-[2-(acetylamino)ethylthio]imidazo[1,2-a]pyridine] had an inhibition at 10 µM of 76%.
On the same count and under the same terms, then `CC(C)OC(=O)NCCSc1cccc2nccn12` [Compound 132, 5-[2-(Isopropyloxycarbonylamino)ethylthio]imidazo[1,2-a]pyridine], with 50%; and `CCCCCCCCCCCCCCCCS(=O)(=O)NCCSc1cccc2nccn12` [Compound 9, 5-[2-(Hexadecylsulfonylamino)ethylthio]imidazo[1,2-a]pyridine], with 100%.

In a further experiment the test system is rat heart. Put plainly: Effect on incidence of arrhythmia caused by ischemia and following reperfusion in rat heart. Particulars: 30 mg/kg oral, 1 hour before ligation; until 10 minutes after reperfusion. The format is in vivo. How it is done: Effect on incidence of arrhythmia caused by ischemia and following reperfusion in rat heart
Male Sprague Dawley rats (Japan Clea) of 9 to 10 weeks old were anesthetized with 50 mg/kg (i.p.) of sodium pentobarbital. The heart was exposed by a left thoractomy under artificial ventilation with room air and silk suture was placed under the main left coronary artery (LAD) to ligate for 5 minutes. Then, the ligature was released again for reperfusion. The incidence of ventricular tachycardia (VT), ventricular fibrillation (VF) and cardiac arrest (CA) caused until 10 minutes after reperfusion were noted. Medicines (compounds obtained in the above Examples) were orally administered (5 ml/kg) at 1 hour before tightening the ligature. The effect of medicines were estimated in comparison with the frequency of a group received a vehicle according to X^2 -test.
As to `CNC(=O)OCCSc1cccc2nccn12` [Compound 118, 5-[2-(methylcarbamoyloxy)ethylthio]imidazo[1,2-a]pyridine], the “CA (Frequency), cardiac arrest” value is given as 0/3; the “VF (Frequency), ventricular fibrillation” value is reported as 1/3; the “VT (Frequency), ventricular tachycardia” value is 1/3.
Regarding `O=C(NCc1ccncc1)OCCSc1cccc2nccn12` [Compound 127, 5-[2-[4-(Pyridyl)methylcarbamoyloxy]ethylthio]imidazo[1,2-a]pyridine], the “CA (Frequency), cardiac arrest” value is 0/3; the “VF (Frequency), ventricular fibrillation” value is 1/3; the “VT (Frequency), ventricular tachycardia” value is 1/3.
